The conditions of series [1]: inhalation; cited from earlier work.
For series [2] the following is noted: in vivo; cited from earlier work.
The conditions of series [3]: mouse, in vivo, po, 10 mg/kg.

Take `CC#N` [acetonitrile]: the “acetonitrile in inhaled air that can induce toxic effects” value in series [1] is 100 ppm.

As to `CCC(=O)C(CC(C)N(C)C)(c1ccccc1)c1ccccc1` (stereo not drawn) [methadone], the “minimally effective plasma analgesic concentration (MEAC)” value in series [2] was 60 ng/mL.

Regarding `Cc1nccn1CC1CCc2c(c3ccccc3n2C)C1=O` (stereo not drawn) [ondansetron], the “slope of trend line, plasma (y) versus whole blood (x) ondansetron concentration” value in series [3] is recorded as 0.973.
